Assay results: US8664213B2, “Spiro bicyclic diamine derivatives as HIV attachment inhibitors” (priority 2011, dated 2014)
Like-named read-outs stand apart in the source and are kept apart here.

Tested on: HIV-1 LAI
Test: Single-round infectious luciferase reporter virus (HIV-1 LAI envelope) infection of MT2 cells
Type: cell-based
Details: Human immunodeficiency virus 1, MT2, 72 h
From the text: • Virus Production— • Human embryonic Kidney cell line, 293T (HEK 293T), was propagated in Dulbecco's Modified Eagle Medium (Invitrogen, Carlsbad, Calif.) containing 10% fetal Bovine serum (FBS, Sigma, St. Louis, Mo.). The human T-cell leukemia cell MT2 (AIDS Research and Reference Reagent Program, Cat. 237) was propagated in RPMI 1640 (Invitrogen, Carlsbad, Calif.) containing 10% fetal bovine serum (FBS, Hyclone, Logan, Utah) • Virus Infection— • Single-round infectious reporter virus was produced by co-transfecting HEK 293T cells with plasmide expressing the HIV-1 LAI envelope along with a plasmid containing an HIV-1 LAI proviral cDNA with the envelope gene replaced by a firefly luciferase reporter gene (Chen et al, Ref 41). Transfections were performed using lipofectAMINE PLUS reagent as described by the manufacturer (Invitrogen, Carlsbad, Calif.).
• 1. MT2 cells were plated in black, 384 well plates at a cell density of 5×10^3 cells per well in 25 μl RPMI 1640 containing 10% FBS. • 2. Compound (diluted in dimethylsulfoxide and growth medium) was added to cells at 12.5 μl/well, so that the final assay concentration would be ≦50 nM. • 3. 12.5 μl of single-round infectious reporter virus in Dulbecco's Modified Eagle Medium was added to the plated cells and compound at an approximate multiplicity of infection (MOI) of 0.01, resulting in a final volume of 50 μl per well. • 4. Virus-infected cells were incubated at 37 degrees Celsius, in a CO2 incubator, and harvested 72 h after infection. • 5. Viral infection was monitored by measuring luciferase expression in the infected cells using a luciferase reporter gene assay kit (Steady-Glo, Promega, Madison, Wis.) as described by the manufacturer. Luciferase activity was then quantified by measuring luminescence using an EnVision Multilabel Plate Readers (PerkinElmer, Waltham, Mass.). • 6. The percent inhibition for each compound was calculated by quantifying the level of luciferase expression in cells infected in the presence of each compound as a percentage of that observed for cells infected in the absence of compound and subtracting such a determined value from 100. • 7. An EC50 provides a method for comparing the antiviral potency of the compounds of this disclosure. The effective concentration for fifty percent inhibition (EC50) was calculated with the Microsoft Excel Xlfit curve fitting software. For each compound, curves were generated from percent inhibition calculated at 10 different concentrations by using a four parameter logistic model (model 205). Table 1 is the key for the data in Table 2.

[1] = read-out: EC50 Group from Table 1

Structure (SMILES)	EC50	EC50 [1]
O=C(C(=O)N1CCC2(CCN(c3nnnn3-c3ccccc3)C2)C1)c1c[nH]c2c(-n3ccnn3)ncc(F)c12 (centres unmarked) [Compound 1001, 1-(4-fluoro-7-(1H-1,2,3-triazol-1-yl)-1H-pyrrolo[2,3-c]pyridin-3-yl)-2-(7-(1-phenyl-1H-tetrazol-5-yl)-2,7-diazaspiro[4.4]nonan-2-yl)ethane-1,2-dione]	5.65 nM	< 500 nM
COc1cnc(-n2cnc(C)n2)c2[nH]cc(C(=O)C(=O)N3CCC4(CCN(c5nnnn5-c5ccccc5)C4)C3)c12 (centres unmarked) [Compound 1002, 1-(4-methoxy-7-(3-methyl-1H-1,2,4-triazol-1-yl)-1H-pyrrolo[2,3-c]pyridin-3-yl)-2-(7-(1-phenyl-1H-tetrazol-5-yl)-2,7-diazaspiro[4.4]nonan-2-yl)ethane-1,2-dione]		< 500 nM
COc1cnc(-n2cnc(C)n2)c2[nH]cc(C(=O)C(=O)N3CCC4(CCN(Cc5ccccc5)C4)C3)c12 (centres unmarked) [Compound 2002]		> 500 nM
O=C(C(=O)N1CCC2(CCN(C(=O)c3ccccc3)C2)C1)c1c[nH]c2c(-n3ccnn3)ncc(F)c12 (centres unmarked) [Compound 2003]		> 500 nM
COc1cnc(-n2cnc(C)n2)c2[nH]cc(C(=O)C(=O)N3CCC4(CCN(C(=O)c5ccccc5)C4)C3)c12 (centres unmarked) [Compound 2004]		> 500 nM
COc1cnc(-n2cnc(C)n2)c2[nH]cc(C(=O)C(=O)N3CC4(C3)CN(c3nnnn3-c3ccccc3)C4)c12 [Compound 4001, 1-(4-methoxy-7-(3-methyl-1H-1,2,4-triazol-1-yl)-1H-pyrrolo[2,3-c]pyridin-3-yl)-2-(6-(1-phenyl-1H-tetrazol-5-yl)-2,6-diazaspiro[3.3]heptan-2-yl)ethane-1,2-dione]	219 nM	< 500 nM
